# Measured values reported in PMC12040169 (PLOS Biology, 2025).
# Assay: in vitro
# Conditions: human, hela cells, % viability
row,Structure (SMILES),"viability at 28.5 h, 10 µM"
1,Cn1ccnc1C1(O)CCN(C(=O)c2cccc(F)c2)CC1 [CBK283543],107%
2,O=C(c1ccncc1)N1C2CCC1CC(O)(c1ccc(F)cc1)C2 (stereo not shown) [CBK283545],95.6%
3,CC(=O)NC1(c2ccc(F)cc2)CCN(C(=O)C2CCCCC2)CC1 [CBK283546],96.9%
4,O=C(CN1CCC(c2ccccc2F)CC1)N1CCOCC1 [CBK283548],89.3%
5,CCN(CC)C(=O)CN1CCC(c2ccccc2F)CC1 [CBK283549],94%
6,Cc1ccc(C2=CCN(CC(=O)Nc3nccs3)CC2)o1 [CBK283557],93.7%
7,COc1ccc(C2CCN(CC(=O)NCc3ccco3)CC2)cc1 [CBK283562],103%
8,COc1ccc(C2CCN(Cc3ccncc3)CC2)cc1 [CBK283563],95.8%
9,COc1ccc(C2CCN(CC(=O)NC3CCCC3)CC2)cc1 [CBK283565],98%
10,O=C(CN1CCC(c2ccc(F)cc2)CC1)Nc1nccs1 [CBK283566],90%
11,Cc1csc(NC(=O)CN2CCC(c3ccc(F)cc3)CC2)n1 [CBK283567],94.2%
12,COc1ccc(C(NC(=O)N(C(C)C)C(C)C)c2nccn2C)cc1 (stereo not shown) [CBK283568],111%
13,Cc1csc(NC(=O)CN2CCC(c3ccccc3F)CC2)n1 [CBK283569],109%
14,Cc1ccc(C2=CCN(CC(N)=O)CC2)o1 [CBK283570],98.3%
15,COc1ccccc1C1(NC(=O)Cn2nc(C)cc2C)CCCC1 [CBK283573],101%
16,CCc1nn(CC(=O)N2CCCCC2)c(=O)c2cc3oc(C)cc3n12 [CBK283575],104%
17,O=C(CN1CCC(c2ccccc2F)CC1)N1CCCCC1 [CBK283577],97.3%
18,O=C(CN1CCC(c2ccccc2F)CC1)N1CCCC1 [CBK283578],98.2%
19,Fc1ccc(CN2CCC(n3cnc4cccnc43)CC2)cc1 [CBK283580],98.2%
20,c1ccc(CCN2CCC(n3cnc4cccnc43)CC2)cc1 [CBK283581],88.5%
21,CCc1nn(CC(=O)N(CC)CC)c(=O)c2cc3oc(C)cc3n12 [CBK283583],99.5%
22,Cc1nc2c(c(=O)[nH]1)CN(C(=O)Cc1c(F)cccc1Cl)CC2 [CBK283589],92.1%
23,Cc1cc2c(cc3c(=O)n(CC(=O)N4CCCCCC4)nc(C)n32)o1 [CBK283591],103%

row,Structure (SMILES),"viability at 28.5 h, 10 µM"
1,Cc1ccnn1CCC(=O)NC1(c2ccc(F)cc2)CCCC1 [CBK283600],115%
2,Cc1ccc(C2=CCN(CC(=O)Nc3ccc(N(C)C)cc3)CC2)o1 [CBK283604],95.5%
3,Cc1ccc(C2=CCN(CC(=O)NC3CCCC3)CC2)o1 [CBK283605],92%
4,Cc1ccc(C2=CCN(CC(=O)Nc3nc(C)c(C)s3)CC2)o1 [CBK283607],99.1%
5,CCN(CC)C(=O)Cn1nc(C)n2c(cc3oc(C)cc32)c1=O [CBK283609],93.7%
6,COc1cccc(C2(NC(=O)c3cnsc3)CCCC2)c1 [CBK283611],94.9%
7,CC(=O)NC1(c2ccc(F)cc2)CCN(CC(=O)NCC2CC2)CC1 [CBK283614],93.9%
8,Cc1c(C(=O)O[C@H]2C[C@@H](c3ccc(F)cc3)N(C)C2=O)cnn1C [CBK283616],103%
9,CC(=O)NC1(c2ccccc2F)CCN(CC(=O)N(C)C)CC1 [CBK283618],103%
10,CCN(CC)C(=O)Cn1nc(C)n2c(cc3occc32)c1=O [CBK283620],86.7%
11,O=C(Cn1ncc2cccn2c1=O)c1ccc(F)cc1 [CBK283627],82.7%
12,CC(C)(C)NC(=O)CN1CCC(c2ccc(F)cc2)CC1 [CBK283629],90.1%
13,Cc1cc2c(cc3c(=O)n(CC(=O)N4CCCCC4)nc(C)n32)o1 [CBK283630],83.4%
14,Cc1cc2c(cc3c(=O)n(CC(=O)N4CCCC4)nc(C)n32)o1 [CBK283631],93.1%
15,Cc1ccc(C2=CCN(CC(=O)N(C)C3CCCCC3)CC2)o1 [CBK283633],91.6%
16,O=C(Cc1ccccc1F)N1CCC(n2cnc3cccnc32)CC1 [CBK283635],87.7%
17,O=C(c1cc(F)cc(F)c1)N1CCC(n2cnc3cccnc32)CC1 [CBK283636],88.6%
18,CCc1nc2cccnc2n1CCNC(=O)c1cccs1 [CBK283638],94.3%
19,O=C(CN1CCC(c2ccc(F)cc2)CC1)NCc1ccco1 [CBK283641],94.9%
20,COc1ccccc1C1(NC(=O)c2cnsc2)CCCC1 [CBK283643],84.5%
21,O=C(CCn1c2ccccc2c2ccccc21)N1CCn2cnnc2C1 [CBK283645],90.4%
22,Cc1nc2c(c(=O)[nH]1)CN(C(=O)c1cc(C3CC3)oc1C)CC2 [CBK283650],103%
23,Cc1cc(C(F)(F)F)c2c(NC/C=C/c3ccco3)n[nH]c2n1 [CBK283651],92.7%
